pIC50 data for 13 molecules are collected here from patent US20120214822A1 (ASTRAZENECA AB, priority 2007, published 2012).

For the assay, the target named is human active recombinant p38α-6His tagged (Homo sapiens, UniProt Q16539). Nature of the assay: P38 Alpha Enzyme Assay (AlphaScreen, biotinylated-ATF2 substrate).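 Further: 0.5 nM final p38α, reaction started with ATP and run 45 min at 37 °C, phospho-ATF2 read by antibody-based AlphaScreen, background wells quenched with EDTA before ATP.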 In kind it is biochemical. The following applies: p38 alpha enzyme inhibition; means of replicate determinations; 4 h pre-incubation at 37° C.; SD of assay 0.2-0.3 log units.
Chain of human active recombinant p38α-6His tagged (Q16539 whole entry): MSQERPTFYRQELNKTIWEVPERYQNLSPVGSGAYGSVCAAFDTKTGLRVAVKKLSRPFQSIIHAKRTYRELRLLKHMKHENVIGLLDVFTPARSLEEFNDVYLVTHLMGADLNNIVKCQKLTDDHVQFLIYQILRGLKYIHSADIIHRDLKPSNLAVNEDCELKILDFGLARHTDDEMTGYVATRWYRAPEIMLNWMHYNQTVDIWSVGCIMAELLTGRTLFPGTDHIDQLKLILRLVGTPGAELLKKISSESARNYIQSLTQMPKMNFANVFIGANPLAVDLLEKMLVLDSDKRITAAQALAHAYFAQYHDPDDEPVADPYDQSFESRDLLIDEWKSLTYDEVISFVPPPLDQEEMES
As for `CCNCCOc1ccccc1C1(Nc2nccn(-c3cc(C(=O)NC4CC4)ccc3C)c2=O)CC1` [Example 168, N-Cyclopropyl-4-methyl-3-[3-[[1-[2-[2-(ethylamino)ethoxy]phenyl]cyclopropyl]amino]-2-oxo-1(2H)-pyrazinyl]-benzamide], the pIC50 was 9.9. With `Cc1ccc(C(=O)NC2CC2)cc1-n1ccnc(NCCc2ccc(OCCN3CCCC3)cc2)c1=O` [Example 133, N-Cyclopropyl-4-methyl-3-[2-oxo-3-[[2-[4-[2-(1-pyrrolidinyl)ethoxy]phenyl]ethyl]amino]-1(2H)-pyrazinyl]-benzamide] the figure was 6.8.

`Cc1ccc(C(=O)NC2CC2)cc1-n1ccnc(N2CCC(c3ccccc3)C2)c1=O` (stereo not shown) [Example 54, N-Cyclopropyl-4-methyl-3-[2-oxo-3-(3-phenyl-1-pyrrolidinyl)-1(2H)-pyrazinyl]-benzamide]: the pIC50 was 6.5. Take `COCCNCCOc1ccccc1C1(Nc2nccn(-c3cc(C(=O)NC4CC4)cc(F)c3C)c2=O)CC1` [Example 261, N-Cyclopropyl-3-fluoro-5-[3-[[1-[2-[2-[(2-methoxyethyl)amino]ethoxy]phenyl]cyclopropyl]amino]-2-oxo-1(2H)-pyrazinyl]-4-methyl-benzamide]: the pIC50 is given as 10.5.

For `Cc1ccc(C(=O)NC2CC2)cc1-n1ccnc(NC2(c3ccccc3OCCNCCCO)CC2)c1=O` [Example 250, N-Cyclopropyl-3-[3-[[1-[2-[2-[(3-hydroxypropyl)amino]ethoxy]phenyl]cyclopropyl]amino]-2-oxo-1(2H)-pyrazinyl]-4-methyl-benzamide], the pIC50 stood at 9.7. For `COC[C@H]1CCCN1C[C@@H](C)[C@@H](Nc1nccn(-c2cc(C(=O)NC3CC3)ccc2C)c1=O)c1ccccc1` [Example 148, N-Cyclopropyl-3-[3-[[(1R,2R)-3-[(2R)-2-(methoxymethyl)-1-pyrrolidinyl]-2-methyl-1-phenylpropyl]amino]-2-oxo-1(2H)-pyrazinyl]-4-methyl-benzamide] the value was 8.1. Turning to `Cc1ccc(C(=O)NC2CC2)cc1-n1ccnc(NC2(c3cccc(F)c3OCCNCCO)CC2)c1=O` [Example 285, N-Cyclopropyl-3-[3-{[1-(3-fluoro-2-{2-[(2-hydroxyethyl)amino]ethoxy}phenyl)cyclopropyl]amino}-2-oxopyrazin-1(2H)-yl]-4-methylbenzamide], the pIC50 is 9.6. For `Cc1ccc(C(=O)NC2CC2)cc1-n1ccnc(NCCCN2CCN(C)CC2)c1=O` [Example 4, N-Cyclopropyl-4-methyl-3-[3-[[3-(4-methyl-1-piperazinyl)propyl]amino]-2-oxo-1(2H)-pyrazinyl]-benzamide] the value was 6.1; for `CCNC(=O)c1ccc(C)c(-n2ccnc(NCc3ccccc3)c2=O)c1` [Example 115, N-Ethyl-4-methyl-3-[2-oxo-3-[(phenylmethyl)amino]-1(2H)-pyrazinyl]-benzamide], 6.9. As for `Cc1ccc(C(=O)NC2CC2)cc1-n1ccnc(NCc2cccs2)c1=O` [Example 31, N-Cyclopropyl-4-methyl-3-[2-oxo-3-[(2-thienylmethyl)amino]-1(2H)-pyrazinyl]-benzamide], the pIC50 worked out at 7. With `Cc1ccc(CNc2nccn(-c3cc(C(=O)NC4CC4)ccc3C)c2=O)cc1` [Example 42, N-Cyclopropyl-4-methyl-3-[3-[[(4-methylphenyl)methyl]amino]-2-oxo-1(2H)-pyrazinyl]-benzamide] the figure was 6.4; with `Cc1ccc(C(=O)NC2CC2)cc1-n1ccnc(NC2(c3ccccc3OCCNCCO)CC2)c1=O` [Example 233, N-Cyclopropyl-3-[3-[[1-[2-[2-[(2-hydroxyethyl)amino]ethoxy]phenyl]cyclopropyl]amino]-2-oxo-1(2H)-pyrazinyl]-4-methyl-benzamide], 9.9. For `CCNCCOc1ccccc1C1(Nc2nccn(-c3cc(C(=O)NC4CC4)c(F)cc3C)c2=O)CC1` [Example 318, N-cyclopropyl-5-{3-[(1-{2-[2-(ethylamino)ethoxy]phenyl}cyclopropyl)amino]-2-oxopyrazin-1(2H)-yl}-2-fluoro-4-methylbenzamide] the value was 8.2.
